# Reference: US20090042783A1, “APO E ANALOGS AND METHODS FOR THEIR USE” (priority 2004, published 2009)
# Marks after values point to notes of the source that are not given here.
# How the values were obtained:
# BV2 microglial cells = test system: BV2 microglial cells
# Method: For suppression of inflammation profiling, each peptide analog was tested at a final concentration of 0.1, […], 1, 3, 5, 10 and 25 μM in an LPS induced BV2 microglial cell release of NO and/or TNFα. […] The modification was a biotin label on the apoE peptide (biotin-[…]-amide) which allows detection with ^125I-streptavidin (ISA, Amersham).
# In overview, BV-2 cells are plated in 96 well plates in complete media and then the media is replaced the next day with serum free media or reduced serum (1%) media. […] Each concentration of peptide (standard initial concentrations are 0.1, 0.5, 1, 3, 10 and 25 μM) is added to at least 6 wells of cells (e.g. 6 wells get 0.1 μM peptide, 6 wells get 0.5 μM peptide, etc.) and data are averaged from all 6 wells. […] (2001). Cell viability is also measured with an MTT assay (Laskowitz et al. 2001).
# [1] = test system: C57BL/6J mice with MOG-induced EAE; test: MOG-induced experimental autoimmune encephalomyelitis (EAE)
# Method: EAE was induced in mice following the method of Feinstein et al. (Feinstein, Galea, et al. 2002) 1) two s.c. injections, one on each flank of the hind legs with 300 μg MOG35-55 peptide in 0.1 ml PBS emulsified in an equal volume of CFA containing 5 mg/ml of Mycobacterium tuberculosis H37RA (Difco, St. Louis, Mo.) were given on Day 0.2) Pertussis toxin (200 ng per mouse in 0.1 ml PBS) was given i.p. immediately and 48 h after first MOG injection. 3) a booster immunization with an identical emulsion, route of administration and location was given on Day 7.
# Following the encephalitogenic challenge, mice were monitored daily and neurological impairment was evaluated by clinical score (C.S.) as follows: 0, no clinical signs of EAE; 1, limp tail; 2, flaccid tail and abnormal gait (ataxia and/or paresis of hind limbs); 3, severe hind limb paresis; 4, complete paralysis with hind body; and 5, moribund or death.
# Mice were anesthetized, bled, and perfused with 25 ml PBS and 25 ml 4% paraformaldehyde in buffered PBS. Brains and spinal cords were dissected out from 3 mice with a clinical score of 0 and another 3 mice with a clinical score of 4 on day 30 post-immunization. Tissues were post-fixed in 4% paraformaldehyde for another 24 h and then stored in 1×PBS with 0.1% sodium azide. Fixed tissues were embedded in paraffin and 5 μm thick sections were cut from brain, the brain stem and three different levels of spinal cord (cervical, thoracic and lumbar). Sections were stained with hematoxylin/eosin for evidence of inflammation and Luxol fast blue (for demyelination). The severity of inflammation was evaluated using the following criteria: 0, no inflammation; 1, cellular infiltrates only in the perivascular areas and meninges; 2, mild cellular infiltrates only in parenchyma (1-10/section); 3, moderate cellular infiltrates in parenchyma (11-100/section); 4, marked cellular infiltrates in parenchyma (>100 section).
# In total, 10 doses of peptides were given.
# peritoneal macrophages = test: Peritoneal macrophage production of NO, TNFα and IL-6 induced by MOG or LPS/IFN-γ; type: cell-based, mouse
# Method: For this purpose, three mice with clinical scores of 0 and three with clinical scores of 4 at 30 dpi (day post-immunization) were used for preparation of peritoneal macrophage cultures. Macrophages were collected after peritoneal lavage with 3 ml heparin (10 U/ml)-containing PBS and then seeded to 96-well microplates at a density of 1×10^5 cells/well in Dulbecco's MEM containing 10% fetal bovine serum, 2 mM L-glutamine serum, 1% HEPES and 100 U/ml penicillin and 100 μg/ml streptomycin, 37° C. in a humidified incubator with 5% CO2. 24 h later, the serum-containing medium was removed and cells were washed once with serum-free medium. To examine the differentiated response of macrophage to immune stimulators, macrophages obtained from mice with clinical scores of 0 or 4 were exposed to serial concentrations of IFN-γ/LPS or MOG35-55 peptide. […] Media were collected at 45 h or 72 h, and analyzed by ELISA for […] and IL-6 or for nitric oxide (NO) as detailed below.
# As the stable end product of nitric oxide release, nitrite levels in conditioned media were determined by injecting 50 μl media sample into a Sievers 280 NOA analyzer (Boulder, Colo., USA). Total protein (μg/well) was measured using the BCA method (Pierce, Rockford, Ill., USA) according to manufacturer's instructions with BSA as standard. BCA values were measured using a Molecular Devices Thermomax Microplate Reader (Menlo Park, Calif., USA) at OD562. Nitric oxide levels ere expressed as μM NO2—/mg protein.
# For cytokine assays, supernatants were collected 45 h after […]/LPS or MOG treatments and quantitative ELISAs using selected pairs of monoclonal antibodies (as recommended by the manufacturer Biosource) were performed to quantify the cytokines, TNF-α and IL-6. For TNF-α ELISA, 96-well ELISA plates were pre-coated with rabbit anti-mouse polyclonal to TNF-α as capture antibodies for 18 h at 2-8° C. and then blocked for 2 h at room temperature. The wells were incubated with samples or mouse TNF-α standards. Following incubation for 2 h at room temperature, the wells were washed, after which hamster anti-mouse TNF-α biotinylated secondary antibody and horseradish peroxidase conjugate were added. Tetramethylbenzidine (TMB) solution was then added, and peroxidase-catalyzed color change was stopped by acidification with 2 NH2SO4. The plates were scanned at wavelength 450 nm and the absorbance were measured. The results are expressed as the mean concentration (pg/ml) ±SEM.
# For IL-6 ELISA, rat anti-mouse monoclonal to IL-6 was used as capture antibody, and biotinylated rat anti-mouse monoclonal to IL-6 as detection antibody. The rest of procedure is identical to that of TNF-α ELISA.
# [2] = test system: mice infected with C. rodentium; test: C. rodentium colitis; type: in vivo; details: for Colon wt (% Total Body wt) / Histology Score / Body wt (% Total Body wt): 10 days; for Body wt (% Total Body wt): 0.1% BEC or 2.5% DFMO; for Inhibition of mortality vs water alone: 1% L-Arg in drinking water
# Excerpt: C. rodentium colitis: Of the two existing mouse models (Gobert A P et al., 2004; Cheng Y. et al., 2003), the C. rodentium model was selected because it produces a Th1-predominant mucosal inflammation that has histologic changes similar to human IBD (Higgins L M et al., 1999). In this model, mice are infected by oral gavage with C. rodentium (Gobert A P et al., 2004), a gram negative pathogenic bacterium that is the rodent equivalent of enteropathogenic E. coli that causes diarrhea in humans.
# Since arginase I and iNOS were both abundantly expressed in the colitis tissues and L-Arg was completely metabolized, we investigated the effect of administration of 1% L-Arg in the drinking water. In wild type (WT) mice, C. rodentium colitis induced a high level of mortality that began on day 9 post-infection (FIG. 31A). In WT animals treated with L-Arg, mortality was inhibited by 42% and 62% compared to mice receiving water alone, after 12 and 14 days of infection, respectively (FIG. 31A). By Cox regression analysis, WT mice treated with L-Arg had only a 31% hazard of death compared with mice receiving water alone (p<0.0009). In iNOS^−/− mice, no deaths were observed, with or without L-Arg (FIG. 31A). […] Note that the weight loss of WT mice is underestimated, since only the weights of animals still alive could be included. […] There was an additive effect of iNOS deletion and L-Arg administration, with a 68% decrease in colon weight. Neither iNOS deletion nor L-Arg treatment affected colon weight in uninfected control mice. Importantly, these changes were closely paralleled by changes in colon histology (FIG. 32).
# In uninfected control mice, BEC or DFMO had no effect (Table I). […] In fact, experiments had to be terminated early at 10 days post-infection, because of deaths and severe disease at this point.
# mice with DSS colitis = test: Dextran sulfate sodium (DSS) colitis; type: in vivo, mouse
# Excerpt: This model was selected because it has become commonly accepted as a mouse model of colitis and is quite practical to employ, since it simply involves adding DSS to the drinking water (Moteau O. et al., 2000, Williams K L et al. 2001, Andres P G et al., 2000, Mahler M. et al., 1998, Tesser T G et al., 1998).
molecule,measurement,setting,value
"LLRKRLKRLHSALRVRL (Reverse of COG133) [Reverse Pep., ApoE reverse peptide, scrambled control of COG133]",Suppression of NO and/or TNFα release from LPS treated BV2 cells,BV2 microglial cells,lacked bioactivity
same,Clinical severity of EAE,"[1]; 1 mg/kg i.v., 10 doses",did not improve the behavioral symptoms of EAE
same,Incidence,"[1]; 1 mg/kg i.v., 10 doses",10/10
same,Mortality,"[1]; 1 mg/kg i.v., 10 doses",3/10
same,Day of onset,"[1]; 1 mg/kg i.v., 10 doses Day 6-22, mean ± SEM",17.3 ± 1.12
same,Mortality,"[1]; 1 mg/kg i.v., 10 doses, listed as reverse peptide",5 of 15
same,Mean maximum score,"[1]; clinical score 0-5, mean ± SEM",3.9 ± 0.31
same,"LPS/IFN-γ-induced production of NO, TNFα and IL-6","peritoneal macrophages; COG133 at 1 μM rather than at 5 μM, P<0.05",failed to inhibit this production
same,MOG-induced production of NO and TNFα,"peritoneal macrophages; macrophages from C.S. 4 mice, 72 h after MOG 20 μg/ml",did not display such an inhibitory effect
"N[C@@H](CSCCB(O)O)C(=O)O [BEC, S-(2-boronoethyl)-L-cysteine]",Colon wt (% Total Body wt),"[2]; WT mice, C. rodentium","1.25 ± 0.07^b,d % Total Body wt"
same,Histology Score,"[2]; WT mice, C. rodentium","9.25 ± 0.69^b,d"
same,Body wt (% Total Body wt),"[2]; WT mice, C. rodentium","82.4 ± 5.2^a,c % Total Body wt"
same,Colon wt (% Total Body wt),"[2]; WT mice, PBS (uninfected)",0.42 ± 0.04 % Total Body wt
same,Histology Score,"[2]; WT mice, PBS (uninfected)",0.67 ± 0.17
same,Body wt (% Total Body wt),"[2]; WT mice, PBS (uninfected)",110.1 ± 2.2 % Total Body wt
same,Colon histologic injury score,"[2]; iNOS−/− C. rodentium-infected mice + BEC, n=8, p<0.01",6.44±0.98
same,Colon weight,"[2]; iNOS−/− C. rodentium-infected mice + BEC, p<0.05",0.92±0.20 % of total body weight
same,Effect in uninfected control mice,[2]; in the drinking water,had no effect
same,Survival of C. rodentium-infected mice,[2]; in the drinking water,significant loss of survival
same,Clinical and histologic parameters of DSS colitis,"mice with DSS colitis; WT and iNOS−/− mice, data not shown",exacerbation of clinical and histologic parameters of colitis
N=C(N)NCCC[C@H](N)C(=O)O [L-Arg],Inhibition of mortality vs water alone,"[2]; WT mice, 12 days of infection",42%
same,Inhibition of mortality vs water alone,"[2]; WT mice, 14 days of infection",62%
same,Hazard of death compared with water alone (Cox regression),"[2]; WT mice, p<0.0009",31%
same,Decrease in colon weight,[2]; infected WT mice,28%
same,Weight loss,[2]; infected WT mice,reduced weight loss
same,Increase in colonic ODC activity,[2]; infected WT mice treated with L-Arg,40 fold
same,Increase in colonic polyamines,[2]; infected WT mice with L-Arg treatment,2.7±0.2 fold
same,Decrease in colon weight,[2]; infected iNOS−/− mice given L-Arg,68%
same,"IFN-γ, TNF-α and IL-1 mRNA in colitis tissues",[2]; real-time PCR,significant attenuation of these increases
same,Clinical parameters of DSS colitis,mice with DSS colitis; L-Arg (1%),reduction in clinical parameters of colitis
same,Colonic polyamine levels in DSS colitis,"mice with DSS colitis; mouse, in vivo",enhanced polyamine levels
